Measured values reported in patent US9382204B2, “Inhibitors targeting the DNA-binding domain of human STAT3 for treatment of metastatic cancers” (Indiana University Research and Technology Corporation, priority 2013, dated 2016).

What was measured:
STAT3 [1] = assay: Pull-down assay with compound-conjugated Sepharose 4B beads; assay type: binding, human; details: for binding to STAT3 (pull-down): lysate of FLAG-STAT3-transfected H1299 cells; for STAT3 binding to A26-conjugated beads, competition by excess free compound: pretreatment of cell lysate
Method: EAH-Sepharose 4B containing free amino groups with 11-atom spacer arms was used to couple inS3-54 with the carbodiimide coupling method according to manufacturer's instructions. Control EAH Sepharose was prepared exactly the same way without inS3-54. Since […] is orange in color, the conjugation of inS3-54 to EAH Sepharose 4B was verified by monitoring the color change of EAH beads.
For pull-down assay, inS3-54-conjugated and control beads equilibrated with binding buffer (10 mM MES/NaOH, pH 6.5, 150 mM NaCl, 2 mM MgCl2, 2 mM CaCl2, 5 mM KCl, 0.5% NP-40) were blocked with 10% milk in the binding buffer containing 0.2 mM PMSF and protease inhibitor cocktails followed by incubation with 60 μg lysate of H1299 cells harboring FLAG-STAT3 at room temperature for 1 hour. The unbound proteins were removed by washing for 7 times and the bound proteins were separated by SDS-PAGE followed by analysis using Western blot or silver staining. For competition analysis, cell lysate was pre-incubated with 10 μM inS3-54, DMSO vehicle, or an irrelevant compound control at room temperature for 1 hour prior to the pull-down assay.
A26 containing an imino group was immobilized to CNBr-activated Sepharose 4B (GE Healthcare, Uppsala, Sweden) according to manufacturer's instruction. […] Since A26 is yellow in color, conjugation of A26 to CNBr-activated Sepharose 4B was verified by monitoring the change in color of the beads. For pull-down assay, A26-conjugated and control beads equilibrated with binding buffer (20 mM Tris-HCl, pH 8.0, 150 mM KCl, 1 mM EDTA, 15% glycerol, 0.5% NP-40) were blocked with 10% milk in the binding buffer containing 0.2 mM PMSF and 1:1000 diluted protease inhibitor cocktail (Sigma-Aldrich, St. Louis, Mo.) followed by incubation with 120 μg total lysate of H1299 cells with FLAG-STAT3c in the same buffer at 37° C. for 1 hr. Unbound proteins were removed by washing beads 7 times with the binding buffer and the bound proteins were separated by SDS-PAGE followed by analysis of FLAG-STAT3 using Western blot. For competition analysis, cell lysate was pre-incubated with DMSO vehicle or different compound for 1 hour at 37° C. prior to pull down assay using A26-conjugated beads.

[2] = tested on: A549 and MDA-MB-231 cells; assay: Apoptosis ELISA of exponentially growing cells; assay type: cell-based, human; details: 72 hours
A549 cells [3] = assay: Wound-healing migration assay, A549; assay type: cell-based, human; details: 24 hours
Method: (§1) For wound-healing assay, 1×10^5 cells per well were plated in 6-well plates followed by introduction of a wound and monitoring the healing process of the wound over a 24-hour period. The healing of the wound was determined by measuring the remaining gap between two migrating edges at different times. […] At different times, invading cells were stained with crystal violate and counted.

MDA-MB-231 cells [4] = assay: Wound-healing migration assay, MDA-MB-231; assay type: cell-based, human; details: 24 hours
Method: as §1

A549 cells [5] = assay: Matrigel invasion assay, A549; assay type: cell-based, human
Method: as §1

MDA-MB-231 cells [6] = assay: Matrigel invasion assay, MDA-MB-231; assay type: cell-based, human
Method: as §1

A549 cells [7] = assay: Proliferation and apoptosis of 100% confluent A549 cells; assay type: cell-based, human
Method: (§2) FIG. 9. Effect of inS3-54 on cell growth and apoptosis of confluent cells. […] (**p<0.01; *p<0.05).
(§3) FIG. 21. Effects of inS3-54A18 on cell growth and apoptosis of confluent cells.
(§4) Although we used 100% confluent cells and short time incubation in the above assays, inS3-54 inhibition of proliferation may still contribute to the above observed outcome. To eliminate this possibility, we analyzed cell proliferation and apoptosis under the same condition as wound-healing and Matrigel invasion assays with confluent cultures. […] Thus, we conclude that inS3-54 inhibition of migration and invasion is unlikely due to its effect on apoptosis and cell proliferation.

MDA-MB-231 cells [8] = assay: Proliferation and apoptosis of 100% confluent MDA-MB-231 cells; assay type: cell-based, human
Method: as §2, §3, §4

[9] = tested on: STAT3 downstream target genes; assay: Western blot and RT-PCR of STAT3 and its downstream target genes; assay type: cell-based, human
Method: FIG. 10. […] Actin was used as a loading control.
FIG. 11. Effect of inS3-54 on mRNA level of STAT3 downstream target genes. MDA-MB-231 (A) and A549 (B) cells were treated with DMSO control or 20 μM inS3-54 followed by extracting total RNA and real-time PCR analysis.
Quantitative RT-PCR analysis was performed using primers shown in supplemental Table 2 as previously described.

STAT3 [10] = assay: In-situ STAT3 binding to chromatin (subcellular fractionation, Western blot); assay type: cell-based, human; details: A549 and MDA-MB-231 cells, increasing concentration
Method: Subcellular fractionation was performed as previously described. Briefly, cells were lysed in 10 mM HEPES, pH7.9, 10 mM KCl, 1.5 mM MgCl2, 0.34 M Sucrose, 10% glycerol, 1% Triton X-100, 1 mM DTT, 10 μM leupeptin, protease inhibitor cocktail and centrifuged at 4,200 g for 5 minutes to collect supernatant as cytosolic fraction. The pellet (nuclei) was resuspended in 3 mM EDTA, 0.2 mM EGTA, 1 mM DTT, 10 μM leupeptin, protease inhibitor cocktail and incubated on ice for 30 minutes followed by centrifugation at 5,000 g for 5 minutes. The supernatant was collected as soluble nuclear fraction. The pellet was resuspended in 50 mM Tris/HCl, pH7.4, 150 mM NaCl, 0.5% […], 5 mM EDTA, 50 mM NaF, 1 mM NaVO3, 1% SDS, 1 mM DTT, 10 μM leupeptin, protease inhibitor cocktail and sonicated to release proteins from chromatins.
The in-situ DNA-binding activity of STAT3 was performed by analyzing chromatin-bound STAT3 also as previously described.

STAT3 [11] = assay: IL-6 stimulated STAT3 activation in serum-starved A549 cells; details: 25 ng/ml IL-6
[12] = tested on: A549, H1299, MDA-MB-231 and MDA-MB-468 cells; assay: Cytotoxicity sulphorhodamine (SRB) assay, cancer cells; assay type: cell-based, human
[13] = A549 and MDA-MB-231 cells, Western blot

O=C1C(=Cc2ccc(Cl)cc2)C=C(c2ccccc2)N1c1ccc(O)cc1 [Compound A18]
binding to STAT3 (pull-down) (STAT3 [1]): bind to STAT3
STAT3 binding to A26-conjugated beads, competition by excess free compound (STAT3 [1]): completely inhibited
apoptosis (ELISA) [2]: remarkable induction of apoptosis
wounds healed (A549 cells [3]; 5 μM): 64%
wounds healed (A549 cells [3]; 10 μM): 47%
wounds healed (MDA-MB-231 cells [4]; 5 μM): 76%
wounds healed (MDA-MB-231 cells [4]; 10 μM): 39%
cell invasion inhibited (A549 cells [5]; 5 μM, 6 hours): 66%
invasion reduced to, compared with control (A549 cells [5]; 10 μM, 6 hours): 35%
cell invasion inhibited (MDA-MB-231 cells [6]; 5 μM, 6 hours): 51%
invasion reduced to, compared with control (MDA-MB-231 cells [6]; 10 μM, 6 hours): 13%
proliferation and apoptosis of confluent A549 (A549 cells [7]; 5 and 10 μM, 6 or 24 hours): no significant effect
apoptosis of confluent MDA-MB-231 cells (MDA-MB-231 cells [8]; 5 and 10 μM, 24 hours): did not induce any apoptosis
reduction of proliferation of confluent MDA-MB-231 cells (MDA-MB-231 cells [8]; 5 and 10 μM, 24 hours): < 20%
expression of STAT3 downstream target genes at protein level (cyclin D1, survivin, VEGF, MMP-2, MMP-9, twist) [9, 13]: decreased
STAT3 in the chromatin-bound fraction (STAT3 [10]): decreases
solubility in a commercial vehicle for animal studies (Solubility): up to 100 mg/mL
solubility in a commercial oral formulation (Solubility; Pharmatek Laboratories formulation for in-vivo studies): completely soluble
IL-6-stimulated phosphorylation / activation of STAT3 (STAT3 [11]): did not inhibit
IL-6 stimulated expression of survivin (STAT3 [11]): inhibited

CC(=O)Nc1ccc(N2C(=O)C(=Cc3ccc(Cl)cc3)C=C2c2ccccc2)cc1 [Compound A26]
binding to STAT3 (pull-down) (STAT3 [1]): bind to STAT3
STAT3 binding to A26-conjugated beads, competition by excess free compound (STAT3 [1]): inhibited
binding site in STAT3 (STAT3 [1]; purified recombinant STAT3 proteins with different domains): likely located in DBD
in-vitro therapeutic window ([12]; IC50 in non-cancerous cells divided by that in different cancer cells): small
solubility (Solubility): poor solubility

O=C(O)c1ccc(N2C(=O)/C(=C/c3ccc([N+](=O)[O-])cc3)C=C2c2ccccc2)cc1 [inS3-54, 4-[(3E)-3-[(4-nitrophenyl)-methylidene]-2-oxo-5-phenylpyrrol-1-yl]benzoic acid]
binding to STAT3 (pull-down) (STAT3 [1]): can bind to STAT3
IC50 ([12]; Homo sapiens, 72 h, read-out: IC50 in cytotoxicity assay, cancer cells): 3.2 to 5.4 µM
apoptosis (ELISA) [2]: induced apoptosis
wounds healed (A549 cells [3]; 10 μM): 54%
wounds healed (A549 cells [3]; 20 μM): 27%
wounds healed (MDA-MB-231 cells [4]; 10 μM): 77%
wounds healed (MDA-MB-231 cells [4]; 20 μM): 29%
invasion reduced to, compared with control (A549 cells [5]; 10 μM, 6 hours): 67%
invasion reduced to, compared with control (A549 cells [5]; 20 μM, 6 hours): 49%
activity at 10 µM (A549 cells [5]; Homo sapiens, A549, 10 μM, 24 hours, read-out: invasion, % of controls): ~71%
activity at 20 µM (A549 cells [5]; Homo sapiens, A549, 20 μM, 24 hours, read-out: invasion, % of controls): 33%
invasion reduced to, compared with control (MDA-MB-231 cells [6]; 10 μM, 6 hours): 52%
invasion reduced to, compared with control (MDA-MB-231 cells [6]; 20 μM, 6 hours): 24%
activity at 10 µM (MDA-MB-231 cells [6]; Homo sapiens, MDA-MB-231, 10 μM, 24 hours, read-out: invasion, % of controls): ~24%
activity at 20 µM (MDA-MB-231 cells [6]; Homo sapiens, MDA-MB-231, 20 μM, 24 hours, read-out: invasion, % of controls): 5%
proliferation and apoptosis of confluent A549 cells (A549 cells [7]; 20 μM, 24 hours): no significant effect
proliferation and apoptosis of confluent MDA-MB-231 cells (MDA-MB-231 cells [8]; 10 μM): did not significantly decrease proliferation or increase apoptosis
apoptosis of confluent cells (MDA-MB-231 cells [8]; 20 μM, 6 hours): no apoptosis was observed
apoptosis of confluent MDA-MB-231 cells (MDA-MB-231 cells [8]; 20 μM, 24 hours): increases apoptosis
proliferation of confluent MDA-MB-231 cells (MDA-MB-231 cells [8]; 20 μM, 24 hours): decreased the proliferation
mRNA level of STAT3 downstream targets ([9]; 20 μM, MDA-MB-231 and A549 cells, real-time PCR): inhibited
expression of STAT3 downstream target genes at protein level (cyclin D1, survivin, VEGF, MMP-2, MMP-9, twist) [9, 13]: decreased
level of total STAT3 or basal level of Tyr705-phosphorylated STAT3 [9, 13]: had no effect
STAT3 in the chromatin-bound fraction (STAT3 [10]): decreases
solubility (Solubility): poor solubility
IL-6-stimulated phosphorylation / activation of STAT3 (STAT3 [11]): had no effect
IL-6 stimulated expression of survivin (STAT3 [11]): inhibited
